{"source": "patent US20100120744A1", "about": "“ACETAM[…] NMDA RECEPTORS” (AUSPEX PHARMACEUTICALS, INC., priority 2008, published 2010)", "origin": "cited, not measured here", "conditions": "in vivo"}
{"smiles": "CC(=O)NCCCS(=O)(=O)O", "note": "[Acamprosate, 3-acetamidopropane-1-sulfonic acid]", "values": [{"measurement": "metabolism by the body", "result": "not metabolized"}]}
